One compound from US20220000811A1, “COMPOSITION FOR PROMOTING HAIR GROWTH COMPRISING A GUANINE DERIVATIVE” (KOREA RESEARCH INSTITUTE OF BIOSCIENCE AND BIOTECHNOLOGY, priority 2019, published 2022) can be followed below.

Experiment [1] has as its system mouse embryonic fibroblasts (MEFs). Description: Reprogramming into iPSCs (OSKM) in mouse embryonic fibroblasts, AP staining. In kind it is cell-based. To be noted: MEFs; for enhancing reprogramming efficiency: 14 days. As for the experimental part: During reprogramming into iPSCs by introducing OSKM reprogramming factor into mouse embryonic fibroblasts (MEFs), rotenone, the guanidine derivatives of the present invention, and phenformin were treated at the indicated concentrations. After 14 days, alkaline phosphatase (AP) staining was performed (FIG. 2A), and the number of AP^+ colonies was quantified (FIG. 2b). […] In the subsequent experiment, additional efficacy was evaluated using only the three compounds showing the effective reprogramming-enhancing effect.

In another experiment the test system is hair follicles. Description: Quantitative histomorphometric analysis of hair follicle cycle and number (H&E). In kind it is in vivo, mouse. As for the experimental part:
During the hair telogen phase, the hair on the dorsal skin of 7-week-old C57BL/6 mice (Dae Han BioLink, Chungbuk, Republic of Korea) was depilated using an animal clipper and wax (Veet, Oxy Reckitt Benckiser, Seoul, Republic of Korea). From the next day, 200 μL of placebo (control), 1% IM, 1% minoxidil, or 1% metformin was applied daily to the depilated area using a sterile cotton swab. Images of each animal were captured daily, and the degree of darkness of the color on dorsal skin was quantified in the same area (1.6 cm×3 cm) using the Image J program. The mice were sacrificed, and skin tissues on days 0, 7, 14, and 20 were obtained. Half of the tissues were used for RNA isolation, and the other half were fixed with 4% paraformaldehyde overnight for histochemical analysis. The tissues fixed in Example 1.1. were immersed in 30% sucrose, and then embedded in an OCT compound (Sakura Finetek USA Inc, Torrance, Calif., USA). Frozen fragments were obtained using a cryostat sectioning device (Leica, Wetzlar, Germany) and stained using hematoxylin (Sigma) and eosin (Sigma) (H&E), or each of the antibodies shown in Table 1 below. Immunohistochemical analysis was performed, and fluorescence images were taken with an Olympus microscope (Olympus) According to the guidelines for accurately classifying the hair cycle stages, the hair cycle was quantified by classifying individual hair follicles with H&E staining micrographs in the longitudinal section of each mouse (n>10). The percentage of the anagen phase of the hair was calculated for each group. Hair follicles in the same area (1300 μm width) were counted by H&E staining micrographs in the cross section of each mouse (n>10).

A further experiment deals with C57BL/6 mice. Description: Hair regeneration model, darkness of dorsal skin and hair growth. In kind it is in vivo, mouse. The protocol:
During the hair telogen phase, the hair on the dorsal skin of 7-week-old C57BL/6 mice (Dae Han BioLink, Chungbuk, Republic of Korea) was depilated using an animal clipper and wax (Veet, Oxy Reckitt Benckiser, Seoul, Republic of Korea). From the next day, 200 μL of placebo (control), 1% IM, 1% minoxidil, or 1% metformin was applied daily to the depilated area using a sterile cotton swab. Images of each animal were captured daily, and the degree of darkness of the color on dorsal skin was quantified in the same area (1.6 cm×3 cm) using the Image J program. The mice were sacrificed, and skin tissues on days 0, 7, 14, and 20 were obtained. Half of the tissues were used for RNA isolation, and the other half were fixed with 4% paraformaldehyde overnight for histochemical analysis. It was confirmed whether the IM compound can promote hair growth without showing toxicity or other side effects through mouse experiments. In 7-week-old C57BL/6 mice, the telogen phase was motivated by hair removal, and various concentrations of IM were applied topically to the dorsal skin of the mice daily.

Each structure is given as a SMILES string.

Turning to `Cc1ccccc1CCNC(=N)NC(=N)N` [IM176OUT05, N-1-(2-methyl)phenethylbiguanide], the enhancing reprogramming efficiency in experiment [1] (10 nM) was found to be 16.8 times; in experiment [1] (20 nM) it was 13.9 times; in experiment [1] (50 nM), 13.7 times. In addition, in experiment [1] (OSKM, after 14 days, indicated concentrations), the “effect on reprogramming, number of AP+ colonies” value is listed as “increased”. The “number of hair follicles compared to control” value is “significantly increased” in the experiment with hair follicles (day 7, cross section) and “significantly higher” in the experiment on hair follicles (day 20). In the experiment on hair follicles (day 20, longitudinal section), the “stage of most hair follicles” value was “growth phases V and VI”. Besides, the “progression of the hair follicle cycle” value in the experiment with hair follicles (histomorphometry) is “stimulated the progression of the hair follicle cycle”. In the experiment on C57BL/6 mice (1% topical daily on dorsal skin, day 9), the “black pigmentation and hair growth” value is recorded as “remarkably observed”. Also, in the experiment on C57BL/6 mice (1% topical daily, comparison with minoxidil), the “hair growth, male and female mice” value is “promoted hair growth in both male and female mice”. For the same compound, the “skin color compared to control or minoxidil-treated mice” value in the experiment on C57BL/6 mice (1% topical daily, day 8) is on record as “clearly darkened”. Further, the hair growth entry in the experiment on C57BL/6 mice (1% topical daily, day 10) was “markedly promoted”. Further, in the experiment with C57BL/6 mice (1% topical daily, female mice), the “hair growth in female mice” value is “strong promoting effect”. For the same compound, in the experiment on C57BL/6 mice (female mice), the “effect compared to minoxidil, independent experiment” value is listed as “excellent effect as compared to minoxidil”.
